Measurements taken from patent US7585938B2, “Gamma-secretase inhibitors” (priority 2002, dated 2009).
Values after ≈ are worked out from the molar mass of the structure shown.

How the values were obtained:
[1] = Examination of solubility, visually and by microscopy; format: physicochemical
From the text: The compound synthesized in Example 1 was examined for its solubility, visually as well as by microscopy.

γ-secretase [2] = assay: Amyloid protein determination by ELISA in culture supernatant of COS cells with introduced wild-type human APP695 gene; format: cell-based, simian; details: for Inhibition rate (%) Aβ42(43) / Inhibition rate (%) Total Aβ: 100 µM
From the text: (§1) The human APP695 gene used in this example (whose nucleotide sequence in its coding region is shown as SEQ ID NO:6) was what had been screened from a cDNA library prepared from the dead brain of a normal human by a conventional method, and its entire nucleotide sequence was confirmed by a conventional method. Briefly, about 1 g of frozen cerebral tissue was phenol-treated and the supernatant aqueous solution was collected. After repeating this process, mRNA was precipitated by addition of ethanol. After dissolving in 20 mM tris-HCl, pH 8., 0.1 mM EDTA, cDNA was synthesized with reverse transcriptase using oligo-dT primers and the mRNA as a template. After remaining RNA was digested with RNase, using thus obtained single-stranded cDNA as a template, double-stranded cDNA was synthesized with DNA polymerase. The double-stranded cDNA was then blunt-ended with T4 DNA polymerase. Following introduction of methylation into a EcoR1 restriction site using EcoR1 methylase, an EcoR1 linker adapter was ligated using ligase. After removal of unreacted free adapter by gel filtration, ligation to λgt11 vector was effected using DNA ligase, and thus ligated product was incorporated into λ-phage using a packaging kit. E. coli cells in agar plates were infected with the λ-phage thus obtained, and the solution containing thus proliferated phage was used as cDNA library. For APP cDNA cloning, oligonucleotides that were anticipated based on the amyloid protein were radio-labeled using γ^32P-ATP and DNA kinase to provide the labeled nucleotides as probes. 10^6 pfu (plaque forming units) of phage were allowed to form plaques on agar plates, and brought into contact with a nylon membrane. The phage DNAs that stuck to the membrane were denaturated to single-stranded DNAs by alkali treatment of the nylon membrane, and the membrane then was neutralized, to which, after incubation in a solution containing salmon sperm DNAs, the ^32P radio-labeled nucleotide probes were added and allowed to hybridize for 12 hours. At this stage, where aimed APP gene incorporated to the phage and one of the oligonucleotides were mutually complementary in their sequences, they would form a double-stranded DNA. The nylon membrane was then exposed to X-ray film, and plaques on the agar plates corresponding to spots of exposure were identified with phages carrying APP gene (fragment). By repeating this process, a single phage was finally obtained. The nucleotide sequence of the APP gene incorporated into the phage was determined by publicly known Sanger method.
(§2) APP gene was efficiently introduced from outside into COS cells, which is a cultured cell line of simian kidney's origin, using Lipofectamine Plus reagent (Invitrogen K.K.) according to its protocol. Briefly, 1 μg of APP gene was dissolved in 100 μl of OPTI-MEM, mixed with 6 μl of Plus reagent and left to stand for 15 minutes at room temperature. In parallel, 4 μl of Lipofectamine dissolved in 100 μl of OPTI-MEM medium was prepared. This was then mixed with the APP gene solution, and left to stand for further 15 minutes. Six-well culture plates were provided in advance in each well of which was placed 800 μl of culture that had been prepared by culturing COS cells at 75% to 80% cell density in a DMEM medium supplemented with 10% fetal bovine serum, and then replacing the medium with OPTI-MEM medium. Two hundred pI of the reaction mixture containing the gene were added to each culture well. Twelve hours after introduction of the gene, the medium was changed from the OPTI-MEM medium containing the introduced gene to a 10% fetal bovine serum-supplemented DMEM medium free of the introduced gene. To this culture, the compound obtained in Example 1 was added. After 36 to 48 hours, culture supernatant was collected, transferred to centrifuging tubes, and centrifuged at 10,000 r.p.m. at room temperature for 5 minutes. The supernatant was used as a sample containing amyloid protein. […]

γ-secretase [3] = assay: Amyloid protein determination by ELISA in culture supernatant of COS cells with introduced London-type (Val717Ile) APP695 gene; format: cell-based, simian; details: for Inhibition rate (%) Total Aβ: 100 µM
From the text: as §1, §2

γ-secretase [4] = assay: Amyloid protein determination by ELISA in culture supernatant of COS cells with introduced Sweden-type APP695 gene; format: cell-based, simian; details: for Inhibition rate (%) Aβ42(43) / Inhibition rate (%) Total Aβ: 100 µM
From the text: as §1, §2

γ-secretase [5] = assay: Amyloid protein determination by ELISA in cells with introduced APP artificial fragment C100 instead of APP695; format: cell-based, simian; details: Inhibitor 100 μM; for Inhibition rate (%) Aβ40 / Inhibition rate (%) Aβ42(43): 100 µM
γ-secretase [6] = target: T1, γ-secretase (Homo sapiens, UniProt P49768); assay: Amyloid protein determination by ELISA in IMR32 cells with introduced human APP695 gene carrying the Sweden mutation; format: cell-based
T1 construct: endogenous in cells; host or cells: IMR32 cells (transfected only with the substrate APP gene)
Experimental: APP gene was efficiently introduced from outside into COS cells, which is a cultured cell line of simian kidney's origin, using Lipofectamine Plus reagent (Invitrogen K.K.) according to its protocol. Briefly, 1 μg of APP gene was dissolved in 100 μl of OPTI-MEM, mixed with 6 μl of Plus reagent and left to stand for 15 minutes at room temperature. In parallel, 4 μl of Lipofectamine dissolved in 100 μl of OPTI-MEM medium was prepared. This was then mixed with the APP gene solution, and left to stand for further 15 minutes. Six-well culture plates were provided in advance in each well of which was placed 800 μl of culture that had been prepared by culturing COS cells at 75% to 80% cell density in a DMEM medium supplemented with 10% fetal bovine serum, and then replacing the medium with OPTI-MEM medium. Two hundred pI of the reaction mixture containing the gene were added to each culture well. Twelve hours after introduction of the gene, the medium was changed from the OPTI-MEM medium containing the introduced gene to a 10% fetal bovine serum-supplemented DMEM medium free of the introduced gene. To this culture, the compound obtained in Example 1 was added. After 36 to 48 hours, culture supernatant was collected, transferred to centrifuging tubes, and centrifuged at 10,000 r.p.m. at room temperature for 5 minutes. The supernatant was used as a sample containing amyloid protein. The shorter and the longer amyloid protein components contained in each sample can be separately determined using a commercially available ELISA kit for amyloid protein determination (KHB3441: Signal Select™ Human ⊖ Amyloid1-42 ELISA Kit, or KHB3481: Signal Select™ Human β Amyloid1-40 ELISA Kit, BioSource International, Inc. CA, USA). Those ELISA kits for amyloid determination included 96-well ELISA plates coated with a primary antibody to these two types of amyloid proteins. Following eliminating non-specific antigen-antibody reactions by allowing a usual non-specific blocking reaction, a sample medium containing the amyloid protein to be measured was reacted. Then, after usual washing, one of secondary antibodies was added. The secondary antibodies consisted of two deferent antibodies that can distinguish between the two types of amyloid proteins, the one is the shorter amyloid protein and the other is the longer amyloid antibody, without no cross reactivity. The difference between the two amyloid proteins is the absence or presence of the two amino acid residues (isoleucine and alanine) at their carboxyl terminus. The antibody that detects the former is considered to recognize valine at the carboxyl terminus and the antibody that detects the latter is thought to recognize the alanine.
The compounds (1′a) and (1′b) obtained above were measured for inhibitory activity by the same method as in Example 3. As the system for evaluation, however, IMR32, a neural system cell line of human origin, was used after introducing to it a human APP695 gene into which the Sweden mutation had been incorporated.

[7] = inhibitor 100 μM (Table 2), listed as Compound
[8] = inhibitor 100 μM (Table 2), listed as inhibitor
[9] = Inhibitor 100 μM, London-type APP695, COS cells
[10] = London-type APP695, inhibitor 100 μM (Table 2)
[11] = Inhibitor 100 μM, Sweden-type APP695, COS cells
[12] = Sweden-type APP695, inhibitor 100 μM (Table 2), listed as Compound
[13] = Sweden-type APP695, inhibitor 100 μM (Table 2), listed as inhibitor

## COC(=O)[C@H](CC(C)C)NC(=O)[C@H](CCSC)NC(=O)[C@@H](C[C@@H](O)[C@H](CC(C)C)NC(=O)OC(C)(C)C)C(C)C [Compound 1, Boc-Leu*-Val-Met-Leu-OMe]
[1]; DMEM medium containing 10% fetal bovine serum, plasma or biological fluid, concentration 10 ng/ml
  solubility: > 0.01 µg/mL
[1]; DMEM medium containing 10% fetal bovine serum, plasma or biological fluid, concentration 1 μg/ml
  solubility: 0.01 to 1 µg/mL (≈ 0.017 to 1.7 µM)
[1]; DMEM medium containing 10% fetal bovine serum, plasma or biological fluid, concentration 100 μg/ml
  solubility: < 100 µg/mL
[1]; DMSO, organic solvent or mixture, concentration 10 ng/ml
  solubility: > 0.01 µg/mL
[1]; DMSO, organic solvent or mixture, concentration 1 μg/ml
  solubility: > 1 µg/mL
[1]; DMSO, organic solvent or mixture, concentration 100 μg/ml
  solubility: > 100 µg/mL
[1]; phosphate buffer, pH 7, aqueous buffer, Phosphate buffer (pH 7.0), concentration 10 ng/ml
  solubility: > 0.01 µg/mL
[1]; phosphate buffer, pH 7, aqueous buffer, Phosphate buffer (pH 7.0), concentration 1 μg/ml
  solubility: 0.01 to 1 µg/mL (≈ 0.017 to 1.7 µM)
[1]; phosphate buffer, pH 7, aqueous buffer, Phosphate buffer (pH 7.0), concentration 100 μg/ml
  solubility: < 100 µg/mL
[1]; physiological saline, saline or isotonic, concentration 10 ng/ml
  solubility: > 0.01 µg/mL
[1]; physiological saline, saline or isotonic, concentration 1 μg/ml
  solubility: 0.01 to 1 µg/mL (≈ 0.017 to 1.7 µM)
[1]; physiological saline, saline or isotonic, concentration 100 μg/ml
  solubility: < 100 µg/mL
γ-secretase [2]
  inhibitory activity for Aβ40 production: about 98%
γ-secretase [2]; Inhibitor 100 μM, COS cells
  Aβ40: 218 pg/mL
  Aβ42(43): 415 pg/mL
  Ratio of Aβ42(43)/Aβ40: 1.90
γ-secretase [2]; inhibitor 100 μM (Table 2)
  Inhibition rate (%) Aβ42: 98%
γ-secretase [2]; [7]
  Inhibition rate (%) Aβ42(43): 71%
  Inhibition rate (%) Total Aβ: 98%
γ-secretase [2]; [8]
  Inhibition rate (%) Aβ42(43): about 71%
  Inhibition rate (%) Total Aβ: about 98%
γ-secretase [3]; [9]
  Aβ40: 151 pg/mL
  Aβ42(43): 855 pg/mL
  Ratio of Aβ42(43)/Aβ40: 5.66
γ-secretase [3]; London mutation (Val717Ile), compared with wild-type sequence
  inhibitory activity on amyloid protein production: nearly the same level of inhibitory activity as that noted on the wild-type sequence
γ-secretase [3]; [10]
  Inhibition rate (%) Aβ42: 98%
  Inhibition rate (%) Aβ42(43): 70%
γ-secretase [3]; London-type APP695, inhibitor 100 μM (Table 2), listed as Compound
  Inhibition rate (%) Total Aβ: 89%
γ-secretase [3]; London-type APP695, inhibitor 100 μM (Table 2), listed as inhibitor
  Inhibition rate (%) Total Aβ: more than 80%
γ-secretase [4]; [11]
  Aβ40: 1726 pg/mL
  Aβ42(43): 1311 pg/mL
  Ratio of Aβ42(43)/Aβ40: 0.76
γ-secretase [4]; Sweden double mutation
  inhibitory activity for Aβ40: about 90%
γ-secretase [4]; Sweden-type APP695, inhibitor 100 μM (Table 2)
  Inhibition rate (%) Aβ40: 90%
γ-secretase [4]; [12]
  Inhibition rate (%) Aβ42(43): 48%
  Inhibition rate (%) Total Aβ: 84%
γ-secretase [4]; [13]
  Inhibition rate (%) Aβ42(43): about 48%
  Inhibition rate (%) Total Aβ: more than 80%
γ-secretase [5]
  Aβ40: 100 pg/mL
  Aβ42(43): 62 pg/mL
  Inhibition rate (%) Total Aβ: 85%
  Total Aβ: 162 pg/mL
γ-secretase [5]; listed as Inhibitor
  Inhibition rate (%) Aβ40: 89%
  Inhibition rate (%) Aβ42(43): 51%
γ-secretase [5]; listed as inhibitor
  Inhibition rate (%) Aβ40: about 90%
  Inhibition rate (%) Aβ42(43): about 50%

## CSCC[C@H](NC(=O)[C@@H](NC(=O)[C@H](CC(C)C)C[C@@H](O)[C@@H](NC(=O)OC(C)(C)C)[C@@H](C)OC(C)(C)C)C(C)C)C(=O)NCc1ccccc1 [Compound 1′a, t-But-OCO-Thr*-Leu-Val-Met-NH-Bzl]
γ-secretase [6]; 10 μM
  Aβ40: 31 pg/mL
γ-secretase [6]; 100 μM
  Aβ40: 0 pg/mL
γ-secretase [6]; IMR-32, Aβ40, 10 μM, read-out: Inhibition rate (%)
  inhibition at 10 µM: 73%
γ-secretase [6]; IMR-32, Aβ40, 100 μM, read-out: Inhibition rate (%)
  inhibition at 100 µM: 100%

## t-But-OCO-Thr*-Leu-Val-Met-NH-Bzl [Compound 1′b]
γ-secretase [6]; 10 μM
  Aβ40: 72 pg/mL
  Inhibition rate (%): 38%
γ-secretase [6]; 100 μM
  Aβ40: 26 pg/mL
  Inhibition rate (%): 78%
